# Patent publication US10390521B2, “Parkinsons disease model and methods” (Boston Medical Center Corporation, priority 2013, dated 2019)
# Legend:
# PLA2g6 = PLA2g6 catalytic activity in homogenates of brain or MEFs; assay type: biochemical, mouse; details: no differences between KO^Ex2 and WT
# Description: The activity of PLA2g6 (FIG. 14) was determined using modified PLA2 assay kit (Cayman, USA), as previously described (56, 63). Briefly, after each experimental treatment, MEFs were homogenized using a cold lysis buffer (10 mM Tris-HCl, pH 7.0, 300 mM sucrose, 0.5% Triton X-100). To identify specific activity of Ca^2+-independent PLA2g6, the assay buffers were modified to contain no Ca^2+, and phospholipase activity was assayed by incubating the samples with the substrate, 1-hexadecyl-2-arachidonoylthio-2-deoxy-sn-glycero-3-phosphorylcholine for 1 h at room temperature in a modified Ca^2+-free assay buffer (10 mM HEPES, pH 7.4, 300 mM NaCl, 60% glycerol, 8 mM Triton X-100, 4 mM EGTA, and 2 mg/ml bovine serum albumin). The generated free thiols were visualized by the addition of DTNB (5,5′-dithiobis(2-[…])) for 5 min, and the absorbance was determined at 405 nm using a standard microplate reader. In calculations of specific PLA2g6 activity a value of 10 mM^−1 was used as extinction coefficient for DTNB at 405 nm. Summary data present average (±SEM) from 3 independent experiments for each condition.
# KO^Ex2 mice = assay: L-DOPA challenge, beam balance test; assay type: in vivo, mouse
# Description: The balance beam test (FIG. 10d) was performed using standard approach (55). […] KO^ex2 and WT males from 8 to 24 month of age were tested. Each mouse was placed on a beam for 2 minutes, and its movement was recorded by video camera. The total travel distance, the number of missteps (paw faults, or slips) during travel were analyzed for each mouse, and data summarized for each group as mean±SEM; the numbers of animals used for each time point is identified on the graphs. L-DOPA challenge test (FIG. 10e) was performed on KO^ex2 and WT littermates mice at 12, 16 and 24 months of age. Control beam balance test was performed in the morning a day before L-DOPA challenge. In the morning of the following day, all mice received a single dose of L-3,4-dihydroxyphenylalanine (L-DOPA) via peritoneal injection. Three different doses (5, 10 and 25 mg/kg, Sigma) were tested on the same groups of animals in separate experiments performed with 2-3 days intervals. During each test 20 minutes before L-DOPA administration, mice were given 6 mg/kg of Benserazide (Sigma) to inhibit peripheral DOPA decarboxylase. Beam balance test was done 1 h after L-DOPA injection, as described above. Video-recorded data for each mouse were analyzed later, and summarized for each group as mean±SEM; the numbers of animals used for these studies is identified on the graphs.
# [1] = system: store-operated Ca^2+ entry (SOCE); assay: Ca^2+ imaging, store-operated Ca^2+ entry in MEFs; assay type: cell-based, mouse; details: MEFs from WT mice
# Description: (§1) MEFs were cultured in glass bottom dishes coated with fibronectin (2.5 μg/cm^2, Sigma, St. Louis, Mo., USA) for 24-48 hours. Intracellular Ca^2+ measurements were done similar to published earlier (57). Briefly, the cells were loaded with fura-2/AM (5 μM) (Invitrogen), and cytosolic Ca^2+ (measured as F340/F380 ratio) was recorded simultaneously in 10-20 individual cells using a dual-excitation fluorescence imaging system (Intracellular Imaging, USA): representative traces show an average (±SEM) for 10-20 cells recorded simultaneously. Ca^2+ changes were calculated as Δ Ratio(F340/F380), which is the difference between the basal and peak values of Ca^2+ responses.
# (§2) The following treatments were used in Ca^2+ studies (FIG. 14): TPEN (N,N,N′,N′-Tetrakis(2-pyridylmethyl)ethylenediamine, Sigma, USA) was applied (400 μM) directly to the cells during recording, 3 min before 2 mM Ca^2+ addition; (S)-BEL ((S)-bromoenol lactone, Cayman, USA) was applied (50 μM for 20 min in serum-free medium at 37° C.) to the cells after their loading with fura-2/AM, and was washed away before the start of experiment; EGTA (2.5 mM) was added to 2 mM Ca^2+-containing bath solution right before ionomycin (IM, 1 μM) application.
# [2] = system: intracellular Ca^2+ stores; assay: Ca^2+ imaging, ionomycin-induced Ca^2+ release from intracellular stores in MEFs; assay type: cell-based, mouse; details: MEFs from KO^Ex2 mice compared to WT; IM 1 μM, extracellular EGTA
# Description: as §1, §2
compound,measurement,setting,value
O=C(O)CN(CCOCCOCCN(CC(=O)O)CC(=O)O)CC(=O)O [EGTA],effect on PLA2g6 catalytic activity,PLA2g6,activation
"N[C@@H](Cc1ccc(O)c(O)c1)C(=O)O [L-DOPA, L-3,4-dihydroxyphenylalanine]",number of missteps in beam balance test,"KO^Ex2 mice; KO^Ex2 mice at 12, 16 and 24 months, L-DOPA 5-25 mg/kg, dose and age-dependent manner",significantly reduced
same,motor performance (PD-like motor dysfunction),"KO^Ex2 mice; KO^Ex2 mice, L-DOPA 5-25 mg/kg peritoneal injection, Benserazide 6 mg/kg 20 min before, test 1 h after injection",significantly improved
"O=C1O/C(=C/Br)CC[C@H]1c1cccc2ccccc12 [S-BEL, (S)-bromoenol lactone]",effect on TPEN-induced Ca^2+ entry,[1]; S-BEL 50 μM for 20 min pretreatment,S-BEL-sensitive
same,effect on PLA2g6 catalytic activity,PLA2g6,inhibition
"c1ccc(CN(CCN(Cc2ccccn2)Cc2ccccn2)Cc2ccccn2)nc1 [TPEN, N,N,N′,N′-Tetrakis(2-pyridylmethyl)ethylenediamine]",store-operated Ca^2+ entry,[1]; TPEN 400 μM,activated
C[C@H](CCC(=O)O)C[C@H](C)C[C@H](C)C(=O)/C=C(\O)[C@H](C)C[C@H](C)C/C=C/[C@@H](C)[C@@H](O)[C@@H](C)[C@@H](O)C[C@@H]1CC[C@@](C)([C@H]2CC[C@@](C)([C@@H](C)O)O2)O1 [ionomycin],decrease in the peak of Ca^2+ release caused by ionomycin,[2],60%
